Source: PubChem BioAssay (NCI)
Values joined by “and” are separate entries in the source; they are usually repeats but may differ in a detail not shown here. Equal values may be shown once.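 1) Cells in 96-well plates. 2) Compound, 48 h, 5 concentrations. 3) Linear interpolation between surrounding doses. 4) Unreached endpoint = highest concentration. The concentration for 50% growth inhibition is given as GI50. At the TGI there is no net growth.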

Test system: MDA-MB-468 breast
Assay: inhibition of tumour cell growth, NCI panel, 48 h

| SMILES | GI50 | TGI |
| --- | --- | --- |
| O=C1/C(=C/c2ccc(F)cc2)CN(Cc2cn(CCNc3ccnc4cc(Cl)ccc34)nn2)C/C1=C\c1ccc(F)cc1 | 1390 nM | 3130 nM |
| CC(=O)c1c[nH]c2ccc(-c3ccnc(Nc4ccc(NC(=O)c5cccc(F)c5)c(CN5CCOCC5)c4)n3)cc12 | 172 nM | 582 nM |
| C=CC[n+]1c(/C=C2\Sc3ccccc3N2C)sc(-c2ccccc2)c1-c1ccccc1 | 251 nM | 911 nM |
| CC([C@H]1CCC2C3CCC4C(=O)C(NC=O)=CC[C@]4(C)C3CC[C@@]21C)N(C)C (some centres undefined) | 1900 nM | 6260 nM |
| COC(=O)c1ccc2c(c1)[n+](=O)c(C(C)=O)c(C(F)(F)F)n2[O-] | 1560 nM | 3040 nM |
| C=C1c2c(C)nn(-c3ccccc3)c2N(C)C23C[C@@H]1C1(C)c4c(C)nn(-c5ccccc5)c4N(C)C(C)(C[C@H]12)C3 (some centres undefined) | 2900 nM | 27900 nM |
| COc1cc(C2CC(c3ccc(C)cc3)=NN2C(C)=O)ccc1Oc1ccnc2cc(Cl)ccc12 (centres undefined) | 20700 nM | > 100000 nM |
| COc1cc(C2C3=C(COC3=O)N(CCO)c3cc4c(cc32)OCCO4)cc(OC)c1O (centres undefined) | 1010 nM | > 11600 nM |
| N=C(N)c1ccc(-c2ccc(-c3ccco3)o2)cc1 | 1390 nM | 3790 nM |
| CCSc1sc(-c2ccc(C)cc2)nc1[P+](c1ccccc1)(c1ccccc1)c1ccccc1 | 219 nM | 731 nM |
| O=C(NCCc1ccccc1)C(c1csc2ccccc12)N(C(=O)CCl)c1ccc(-c2cnco2)cc1 (centres undefined) | 812 nM | 2600 nM |
| Cc1cc(C)c2nc(Nc3nc(C)c(C)c(=O)[nH]3)nc(C)c2c1 | 2130 nM | 5890 nM |
| COc1cccc(-n2cnc3c(N/N=C/c4ccncc4)ncnc32)c1 | 6400 nM | > 25000 nM |
| CCCCCCCC(=O)SCC/C=C/[C@@H]1CC(=O)NCc2cccc(n2)CN(Cc2ccc(Cl)cc2)CC(=O)N[C@@H](C(C)C)C(=O)O1 | 13800 nM | > 100000 nM |
| Oc1ccc(Br)cc1CN1CCN(Cc2ccc(Cl)cc2)CC1 | 5100 nM | 55800 nM |
| COc1cc(OC)cc(-c2n[nH]nc2-c2ccc3c(c2)OCO3)c1 | 226 nM | 25800 nM |
| CC(C)=CCNc1ncnc2c1ncn2C1OC(COP(=O)(O)O)C(O)C1O (centres undefined) | 2010 nM | 5400 nM |
| N#CC1=C(N)Oc2c(sc3c(F)cccc23)C1c1ccc(Cl)cc1 (centres undefined) | 3180 nM | 12100 nM |
| COc1ccc(C2CC(c3cccc(Nc4ccnc5cc(Cl)ccc45)c3)=NN2c2ccccc2)cc1 (centres undefined) | 2130 nM | 34300 nM |
| O=C(CCCCCn1c2ccccc2c2c3c(c4c5ccccc5[nH]c4c21)C(=O)N(O)C3=O)N1CCOCC1 | 2710 nM | 5900 nM |
| COc1ccc(CNCCN2C(=O)c3ccc4c5c(ccc(c35)C2=O)C(=O)N(CCNCc2ccc(OC)cc2)C4=O)cc1 | 191 nM | 482 nM |
| CN1CCN(c2nc(C3=C(c4c[nH]c5ccccc45)C(=O)NC3=O)c3ccccc3n2)CC1 | 13400 nM and 15000 nM | 43600 nM and 30400 nM |
| Nc1ncnc2c1ncn2C1OC(CO)C(O)C1O (centres undefined) | 2140 nM | 5410 nM |
| CCCCCc1c(C)[nH]c(/C=C2\N=C(c3ccc[nH]3)C=C2Oc2ccc(OC)cc2)c1C | 65.5 nM and 27.1 nM | 2040 nM and 288 nM |
| O=c1cc(N2CCOCC2)oc2c(-c3ccccc3)cccc12 | 2850 nM | 18000 nM |
| COc1ccc(/C(C#N)=C/c2nc3c(N4CCOCC4)nc(Cl)nc3n2C)cc1OC | 20.4 nM | 1340 nM |
| CN1CCN(c2nc(NCCNc3ccnc4cc(Cl)ccc34)c3ccccc3n2)CC1 | 1460 nM | 4640 nM |
